# System: C57BL/6 male mice
# Experiment: In vivo delivery study of lipid nucleic acid mixture (oral gavage, RT-qPCR of PGY-sRNA-26 in tissues)
# Set-up: species or system mouse
# Conditions: for overall delivery efficacy: delivering nucleic acids into each tissue and blood tested: 100 μg lipid:10 nmol PGY-sRNA-26, all tissues and blood tested; for oral delivery of single-stranded sRNA nucleic acids into mouse blood / oral delivery of single-stranded sRNA nucleic acids into mouse brain tissue / oral delivery of single-stranded sRNA nucleic acids into mouse femur / oral delivery of single-stranded sRNA nucleic acids into mouse heart tissue / oral delivery of single-stranded sRNA nucleic acids into mouse intestinal tissue / oral delivery of single-stranded sRNA nucleic acids into mouse kidney tissue / oral delivery of single-stranded sRNA nucleic acids into mouse liver tissue / oral delivery of single-stranded sRNA nucleic acids into mouse lung tissue / oral delivery of single-stranded sRNA nucleic acids into mouse spleen tissue / oral delivery of single-stranded sRNA nucleic acids into mouse stomach tissue: 100 μg lipid:10 nmol PGY-sRNA-26, sampled after 12 hours; for oral delivery of single-stranded sRNA nucleic acids into mouse heart tissue: vs free uptake group; for oral delivery of single-stranded sRNA nucleic acids into mouse intestinal tissue: intestine
# Summary of the method: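 Lipid (100 μg) and 10 nmol 3'-methylated single-stranded PGY-sRNA-26 were heated at 90 °C for 15 min, then given by oral gavage to mice fasted 12 h. Controls were saline and free sRNA. Blood and tissues were taken at 12 h, and levels were measured by stem-loop RT-qPCR relative to U6.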
compound,measurement,value
"CCCCCCCCCCCCCCCCCCO [Lipid 636, octadecan-1-ol]",overall delivery efficacy: delivering nucleic acids into each tissue and blood tested,best delivery efficacy
same,oral delivery of single-stranded sRNA nucleic acids into mouse blood,can effectively orally deliver
same,oral delivery of single-stranded sRNA nucleic acids into mouse brain tissue,can effectively orally deliver
same,oral delivery of single-stranded sRNA nucleic acids into mouse femur,can effectively orally deliver
same,oral delivery of single-stranded sRNA nucleic acids into mouse heart tissue,can effectively orally deliver
same,oral delivery of single-stranded sRNA nucleic acids into mouse intestinal tissue,can effectively orally deliver
same,oral delivery of single-stranded sRNA nucleic acids into mouse kidney tissue,can effectively orally deliver
same,oral delivery of single-stranded sRNA nucleic acids into mouse liver tissue,can effectively orally deliver
same,oral delivery of single-stranded sRNA nucleic acids into mouse lung tissue,can effectively orally deliver
same,oral delivery of single-stranded sRNA nucleic acids into mouse spleen tissue,can effectively orally deliver
same,oral delivery of single-stranded sRNA nucleic acids into mouse stomach tissue,can effectively orally deliver
"O=C(O)CCC(=O)O [Lipid 628, butanedioic acid]",overall delivery efficacy: delivering nucleic acids into each tissue and blood tested,best delivery efficacy
same,oral delivery of single-stranded sRNA nucleic acids into mouse blood,can effectively orally deliver
same,oral delivery of single-stranded sRNA nucleic acids into mouse brain tissue,can effectively orally deliver
same,oral delivery of single-stranded sRNA nucleic acids into mouse femur,can effectively orally deliver
same,oral delivery of single-stranded sRNA nucleic acids into mouse heart tissue,can effectively orally deliver
same,oral delivery of single-stranded sRNA nucleic acids into mouse intestinal tissue,can effectively orally deliver
same,oral delivery of single-stranded sRNA nucleic acids into mouse kidney tissue,can effectively orally deliver
same,oral delivery of single-stranded sRNA nucleic acids into mouse liver tissue,can effectively orally deliver
same,oral delivery of single-stranded sRNA nucleic acids into mouse lung tissue,can effectively orally deliver
same,oral delivery of single-stranded sRNA nucleic acids into mouse spleen tissue,can effectively orally deliver
same,oral delivery of single-stranded sRNA nucleic acids into mouse stomach tissue,can effectively orally deliver

# — patent US20250073255A1, “USE OF FA-TYPE LIPID COMPOUNDS IN PREPARATION OF NUCLEIC ACID DELIVERY REAGENT AND RELATED PRODUCT” (BEIJING BAISHIKANG PHARMACEUTICAL TECHNOLOGY (BSJPHARMA) …, priority 2021, published 2025)
